Measured values from PMC8008885 (Journal of Enzyme Inhibition and Medicinal Chemistry, 2021).

Assays:
striatum of YAC128 mice = experiment: Acid histone extraction and Western blot of H3K9 methylation in the striatum of YAC128 mice; format: in vivo, mouse; details: YAC128 mice vs vehicle-treated YAC128 mice
Procedure: Cells were homogenised with Dounce homogeniser in […] of phosphate-buffered saline containing 0.4 mM sodium butyrate, 5% Triton X-100, 3 mM DTT, 1 mM sodium orthovanadate, 5 mM sodium fluoride, 3 mM PMSF, 3 mM DTT, 0.5 mg/ml leupeptin, and 10 mg/ml aprotinin as previously described. The nuclear pellets were collected and washed twice with the above-described 5% Triton buffer. Histones were extracted by solubilising in […] of 0.2 M HCl on a shaker for 2 h. After neutralising the pH of the acid-extracted solution containing the histone pool with ammonium acetate, the protein content was quantified. […] After releasing the vacuum, the nitrocellulose membrane was removed and washed twice with TBS-T for 5 min. Then, the nitrocellulose membrane was blocked with 5% milk/TBS-T for 30 min and subsequently incubated with primary antibody in 5% milk/TBS-T for 24 h at cold room. The nitrocellulose membrane was washed twice with TBS-T for 5 min and incubated with secondary antibody in 1% milk (15 ml) for one hour at room temperature. […]
YAC128 mice were bred with females from their background strain (B6CBAFI/J), and offspring were genotyped using PCR as previously described. […] The biochemical and behavioural/neuropathological symptoms of mice were determined after 4 weeks of drug administration. […]

[1] = system: STHdhQ7/7 (wild type) cells; experiment: Cell viability MTT assay; format: cell-based; details: 24 h, concentration range 1–100 µM
Procedure: Cell viability was quantified using MTT assay (Sigma, St. Louis, MO, M2128). In brief, cells were cultured in each well of 96-well plates with varying concentrations of compounds for 24 h. Following incubation of cells in each well with MTT (0.5 mg/ml) for 4 h, the culture supernatant was discarded. Cells were washed with PBS three times, and the insoluble formazan product dissolved in DMSO. The optical density (OD) of each culture well was measured using as ELISA reader at 570 nm. The OD570 in control cells was taken as 100% viability.
Next, we evaluated the inhibitory activity of our compound against SETDB1 enzyme by comparing with a well-known methyltransferase inhibitor […] using chemo-luminescence assay (Figure S1a).

C=CCOc1cccc2nc(N3CCCC3)ccc12 [APQ, 5-allyloxy-2-(pyrrolidin-1-yl)quinoline]
H3K9me3, H3K9me1 and H3K9me2 levels in the striatum (Western blot) (striatum of YAC128 mice): selectively decreased H3K9me3 levels but not H3K9me1 or H3K9me2 levels
cytotoxicity (cell viability, MTT) [1]: did not show any cytotoxicity
